Measured values as given in ChEMBL document CHEMBL3507680, “University of Dundee, Gates Library screen for HepG2 cell viability”.

assay: Human HepG2 cell viability assay in 384 well format; format: toxicity, cell-based; parameters: dose 125 nL, time 70.5 hour; concentration not given beside the values; conditions: HepG2 cells, read-out: Inhibition

Question: For `COc1ccc(CC(=O)N2CCCC(n3nc(C)cc3C)C2)cc1` (stereo not given), which cytotoxicity at 70.5 h is on record?
Answer: -3.95%

Question: Which cytotoxicity at 70.5 h does the source give for `C[C@@H](NCc1cccc(Cl)c1)c1onc(-c2ccc(F)cc2)c1C(=O)O` here?
Answer: -2.58%

Question: With `CNc1ccc(C)cc1C(=O)N1CCCC2(CCNC2)C1` (stereo not given) as the molecule, how does the cytotoxicity at 70.5 h read?
Answer: -8.09%

Question: For `Cc1nc(-c2ccsc2)ccc1C(=O)NCC(C)N1CCOCC1` (stereo not given), which cytotoxicity at 70.5 h is on record?
Answer: -4.37%

Question: Which cytotoxicity at 70.5 h does the source give for `CC1(C)CNC(=O)CN(C(=O)COc2ccccc2)C1` here?
Answer: -14.2%

Question: Which cytotoxicity at 70.5 h does the source give for `CCc1ccc2c(c1)C(CCNC(=O)Cc1ccc(F)cc1)C(=O)N2` (stereo not given) here?
Answer: 11.8%

Question: Which cytotoxicity at 70.5 h does the source give for `CCCn1ccnc1-c1nccn1CCn1cnnc1` here?
Answer: -6.38%

Question: Which cytotoxicity at 70.5 h does the source give for `CCc1nc(C)c([C@H]2CN(C)C[C@@H]2C(=O)NCc2ccccn2)[nH]1` here?
Answer: -2.64%

Question: With `COc1ncccc1CNC(=O)c1cc(Cl)ccn1` as the molecule, how does the cytotoxicity at 70.5 h read?
Answer: -8.01%

Question: With `CC(C)c1cc(NC(=O)c2ccc(NC3CC3)nc2)[nH]n1` as the molecule, how does the cytotoxicity at 70.5 h read?
Answer: -5.73%

Question: With `NS(=O)(=O)CCN1CCN(c2ccccc2O)CC1` as the molecule, how does the cytotoxicity at 70.5 h read?
Answer: -0.407%

Question: Which cytotoxicity at 70.5 h does the source give for `Cc1ccc(CN(C(=O)NC2CCS(=O)(=O)C2)C2CC2)o1` (stereo not given) here?
Answer: -7.82%

Question: With `COc1cccc(S(=O)(=O)NC(=O)COc2c(C)cccc2C)c1` as the molecule, how does the cytotoxicity at 70.5 h read?
Answer: -9.64%

Question: With `CC(NC(=O)Nc1cccnc1N1CCCC1)c1ccccn1` (stereo not given) as the molecule, how does the cytotoxicity at 70.5 h read?
Answer: -17.8%

Question: Which cytotoxicity at 70.5 h does the source give for `COc1c(C2CCCN2C(=O)c2cscn2)c(C)nn1C` (stereo not given) here?
Answer: 18.5%

Question: With `CCCOC(=O)N1CCn2nc(-c3nc4ccccc4n3C)cc2C1` as the molecule, how does the cytotoxicity at 70.5 h read?
Answer: -5.25%

Question: For `CNC(=O)NC(C)c1nc(-c2ccccc2)c[nH]1` (stereo not given), which cytotoxicity at 70.5 h is on record?
Answer: -3.67%

Question: Which cytotoxicity at 70.5 h does the source give for `CN(CCc1ccccn1)S(=O)(=O)N1CCCC1c1ccco1` (stereo not given) here?
Answer: -10.8%

Question: For `Fc1ccc(-c2nnc(CN3CCCC3Cn3cncn3)o2)cc1` (stereo not given), which cytotoxicity at 70.5 h is on record?
Answer: -8.54%

Question: With `CCS(=O)(=O)N1CCC2(CC1)CN(C(=O)N(C)C)Cc1ccccc12` as the molecule, how does the cytotoxicity at 70.5 h read?
Answer: -2.71%

Question: For `Cc1cccc(C)c1NC(=O)NCC1CCCN(C2CCOCC2)C1` (stereo not given), which cytotoxicity at 70.5 h is on record?
Answer: -8.66%

Question: With `COC(=O)CCc1c(C)nc2cc(O)nn2c1C` as the molecule, how does the cytotoxicity at 70.5 h read?
Answer: -2.64%

Question: Which cytotoxicity at 70.5 h does the source give for `COc1cccc(S(=O)(=O)CCN2CCN(CCO)CC2)c1` here?
Answer: -2.82%

Question: For `COc1nn(C)c2c1CCCN(S(=O)(=O)c1cccs1)C2`, which cytotoxicity at 70.5 h is on record?
Answer: 12.6%

Question: For `COCCNC(=O)Cn1c(-c2ccco2)cc2cccnc21`, which cytotoxicity at 70.5 h is on record?
Answer: -8.41%

Question: Which cytotoxicity at 70.5 h does the source give for `COc1cccc(CN2CCCCC2c2n[nH]cc2-c2cc(C)no2)c1` (stereo not given) here?
Answer: -3.89%

Question: For `O=C(c1cnc(Cc2c(Cl)cccc2Cl)nc1O)N1CCNCC1`, which cytotoxicity at 70.5 h is on record?
Answer: 8.34%

Question: For `Cc1ccc2nc(C)cc(NCCNS(=O)(=O)c3cn(C)nc3C)c2c1`, which cytotoxicity at 70.5 h is on record?
Answer: 0.534%

Question: Which cytotoxicity at 70.5 h does the source give for `CCc1nc(C)c(CN2CCN(c3ncnc4scc(C)c34)CC2)[nH]1` here?
Answer: -9.72%

Question: Which cytotoxicity at 70.5 h does the source give for `CCCS(=O)(=O)NC1CCN(c2nnc(C)c(C)c2C#N)CC1` here?
Answer: -6.18%

Question: For `Cc1nc(-c2ccsc2)ccc1C(=O)O`, which cytotoxicity at 70.5 h is on record?
Answer: -4.19%

Question: For `O=C(NC[C@H]1OC[C@@H](NCc2ccccn2)[C@@H]1O)c1ccncc1`, which cytotoxicity at 70.5 h is on record?
Answer: -1.84%

Question: For `COc1ccc(C(=O)NS(=O)(=O)c2cccc(C#N)c2)cc1`, which cytotoxicity at 70.5 h is on record?
Answer: 13.5%

Question: With `CC(NC(=O)N1CCc2ccccc21)c1nncn1C` (stereo not given) as the molecule, how does the cytotoxicity at 70.5 h read?
Answer: -12.2%

Question: For `CN(C)C[C@@H]1[C@H]2CN(C(=O)c3cc(=O)[nH]c4ccc(F)cc34)C[C@@H]12`, which cytotoxicity at 70.5 h is on record?
Answer: 22.8%

Question: With `CCOC(=O)c1sc2ccsc2c1CN` as the molecule, how does the cytotoxicity at 70.5 h read?
Answer: -3.38%

Question: For `CN(Cc1cccnc1)[C@@H]1CN(c2ccccn2)[C@@H]2CCCO[C@H]12`, which cytotoxicity at 70.5 h is on record?
Answer: -9.04%

Question: For `O=C(N[C@@H]1CN(Cc2ccoc2)C[C@@H]2CCCO[C@@H]21)C1CCC1`, which cytotoxicity at 70.5 h is on record?
Answer: -11.2%

Question: With `CCOc1no[n+]([O-])c1-c1ccccc1` as the molecule, how does the cytotoxicity at 70.5 h read?
Answer: -3.07%

Question: With `CNc1nc(CNC(=O)Nc2ccc(OC)cc2C)cs1` as the molecule, how does the cytotoxicity at 70.5 h read?
Answer: -7.81%

Question: For `Cc1ccc(-c2noc([C@@H]3C[C@H](NC(=O)CC(C)(C)C)CN3C)n2)cc1`, which cytotoxicity at 70.5 h is on record?
Answer: -2%

Question: For `CN(C)Cc1nc(C(C)(C)NC(=O)c2ccc3ccccc3c2)no1`, which cytotoxicity at 70.5 h is on record?
Answer: -6.87%

Question: With `COc1cccc(N2CCC(CNCc3cccc(C#N)c3)C2)c1` (stereo not given) as the molecule, how does the cytotoxicity at 70.5 h read?
Answer: 9.04%

Question: For `c1ccc(CCCn2cc(-c3nc(CN4CCOCC4)no3)nn2)cc1`, which cytotoxicity at 70.5 h is on record?
Answer: -15%

Question: Which cytotoxicity at 70.5 h does the source give for `CCCS(=O)(=O)NCc1nc(C)cc(N2CCCC2)n1` here?
Answer: -5.66%
